Data: US11236055B2 (Venenum Biodesign, LLC, priority 2016, dated 2022)
Where two headings read alike, the source gives them in different places.

How the values were obtained:
[1] = Portal vein versus systemic pharmacokinetics in hepatic portal vein cannulated rats; type: in vivo, rat; details: portal vein cannulated male CD (SD) rats, 10 mg/kg oral; for Cmax / Tmax / AUC(0-t): rat; for AUC(0-t): read-out: AUC (0-7 h)
Description: Low Level of Compounds is Attributed to Low Intestinal Absorption
In this study, it was determined if the low plasma level of the compounds of the present invention is due to low absorption in the gut, or due to the first pass effect (i.e., absorption followed by a rapid degradation of compounds by liver). Hepatic portal vein cannulated male CD (SD) rats obtained from Charles River Laboratory were utilized. In brief, Compound 20BG was administered orally at 10 mg/kg, and blood was obtained simultaneously from the portal vein and systemic circulation (retro-orbital sinus) at pre-dose, 0.25, 0.5, 1, 2, and 4 hours post-dose, in EDTA coated tubes. The samples were processed into plasma and quantification of compound levels in the plasma was accomplished by means of LC-MS/MS analysis as described in Example 59.

DIO mice [2] = assay: Weight loss after multiple days of dosing in DIO mice; type: in vivo, mouse; details: DIO mice on high fat diet, oral BID for 12 days
Description: Monitoring of Weight Loss after Multiple Days of Dosing Compounds
Compounds of the present invention were dosed for multiple days and were evaluated for their ability to cause mice to lose weight. In the next series of studies (Examples 66-70), Male DIO mice were received at 12 weeks of age (from Taconic), and were single-housed at the testing facility and acclimated for at least 2 weeks. The mice were provided a high fat diet [Research Diet D12492 (60% Fat kcal)] while in the testing facility. Before the study initiation, the animals were randomized into 5 experimental groups by body weight. The vehicle group contained only 0.5% carboxymethylcellulose (medium viscosity)+0.25% Tween-80. The second group contained 10 mg/kg of the DPP-IV inhibitor Linagliptin while the third group contained 10 mg/kg Compound 20BG. The fourth group contained the combination of 10 mg/kg Linagliptin and 10 mg/kg Compound 20BG. The fifth group was the positive control for weight loss, Liraglutide. All mice, except the Liraglutide group, were dosed BID at approximately 6:00 am and again at approximately […]. The positive control liraglutide was administered at a dose of 0.2 mg/kg subcutaneously in the afternoon.
Compounds of the present invention were evaluated for their ability to cause mice to lose weight. Mice were dosed compounds for 12 days and body weights were recorded twice a week.

DIO mice [3] = assay: Food intake after multiple days of dosing in DIO mice; type: in vivo, mouse; details: DIO mice on high fat diet, oral BID for 12 days
Description: Monitoring of Food Intake after Multiple Days of Dosing Compounds
Compounds of the present invention were dosed for multiple days and were evaluated for their ability to cause mice to have a lower food intake. Mice were dosed compounds for 12 days as per the protocol in Example 66.
The HFD (Research Diets, D12492, 60% fat kcal) is placed at the bottom of the cage of a singly-housed animal. The remaining food in each cage is recovered and weighed again at the same time of day 3 or 4 days later. The difference in the starting and ending food weight represents the amount of food consumed. Daily food intake is calculated by averaging over a 3 or 4 day period every week.

[4] = test system: GLP-1 plasma level in DIO mice; assay: GLP-1 levels after multiple days of dosing in DIO mice; type: in vivo, mouse; details: 12 days BID oral, in combination with linagliptin, 6 h after final dose
Description: GLP-1 Levels after Multiple Days of Dosing Compounds
Compounds of the present invention were dosed for multiple days and were evaluated to determine if they produce sustained GLP-1 levels. In this example, the protocol from Example 66 was utilized. In week 2 of the study, mice were euthanized and blood was collected 6 hours after the final dose of compound. For the GLP-1 assay, 200-250 μL of blood was placed in an EDTA K^2+ tube containing 5 μL of 40 mg/mL aprotinin (Sigma A1153) and 1 μL of 10 mM sitagliptin (Sigma S8576) and plasma was separated by centrifugation. Plasma samples were stored at −20° C. until analysis. The active form of GLP-1 [GLP-1 (7-36) amide] was analyzed using Meso Scale Discovery System according to the manufacturer's directions (item number K150HYC). Values of p<0.05 are considered statistically significant.

[5] = portal vein plasma, Portal Vein bleed
[6] = systemic plasma (retro-orbital sinus), Peripheral bleed (retro-orbital sinus)

- absorption (PK in portal vein and systemic circulation) [1]: very low absorption
- Cmax [1, 5]: 7.6 ± 3.6 ng/mL
- Tmax [1, 5]: 15 to 120 min
- AUC(0-t) [1, 5]: 30.1 ± 0.9 ng·h/mL
- Cmax [1, 6]: 1.3 ± 0.7 ng/mL
- Tmax [1, 6]: 15 to 60 min
- AUC(0-t) [1, 6]: 3.1 ± 10.8 ng·h/mL
Compound: CCc1cnccc1-c1cccc([C@H](C)N(CCCC(=O)NCCS(=O)(=O)NCC(=O)O)S(=O)(=O)c2ccccc2C(F)(F)F)c1 [Compound 20BG]
- body weight change (DIO mice [2]): modest weight loss
- food intake (DIO mice [3]): no significant effect
- GLP-1 plasma level versus vehicle [4]: significantly increased
